# Laboratory results: ChEMBL document CHEMBL1123652, “Optimization and in vivo evaluations of a series of small, potent, and specific renin inhibitors containing a novel Leu-Val replacement” (J Med Chem, 1987)
# Target: T1, Renin (Homo sapiens, UniProt P00797)
# T1 sequence (P00797 whole entry): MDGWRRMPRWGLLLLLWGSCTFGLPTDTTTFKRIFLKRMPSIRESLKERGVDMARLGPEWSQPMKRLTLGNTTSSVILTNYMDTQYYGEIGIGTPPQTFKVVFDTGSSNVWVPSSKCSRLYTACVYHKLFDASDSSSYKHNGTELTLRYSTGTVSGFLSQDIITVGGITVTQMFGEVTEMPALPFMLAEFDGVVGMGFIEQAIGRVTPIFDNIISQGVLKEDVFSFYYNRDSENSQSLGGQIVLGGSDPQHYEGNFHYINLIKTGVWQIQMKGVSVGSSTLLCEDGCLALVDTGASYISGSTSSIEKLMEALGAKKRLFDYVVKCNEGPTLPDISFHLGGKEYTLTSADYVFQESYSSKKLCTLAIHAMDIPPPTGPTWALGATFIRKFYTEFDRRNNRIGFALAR
# Experiment: Evaluated in vitro for inhibitory potency against renin.
row,Compound,IC50 [µM]
1,CC(C)S(=O)(=O)C[C@H](O)[C@H](CC1CCCCC1)NC(=O)[C@H](CO)NC(=O)[C@H](Cc1ccccc1)NC(=O)OC(C)(C)C,0.04
2,CCOC(=O)N[C@@H](Cc1ccccc1)C(=O)N[C@@H](Cc1c[nH]cn1)C(=O)N[C@@H](CC1CCCCC1)[C@@H](O)CS(=O)(=O)C(C)C,0.005
3,CC(C)S(=O)(=O)C[C@H](O)[C@H](CC1CCCCC1)NC(=O)[C@@H](NC(=O)[C@H](Cc1ccccc1)NC(=O)OC(C)(C)C)[C@@H](C)O,0.008
4,CC(C)S(=O)(=O)C[C@H](O)[C@H](CC1CCCCC1)NC(=O)[C@H](CCCNC(=O)OCc1ccccc1)NC(=O)[C@H](Cc1ccccc1)NC(=O)OC(C)(C)C,0.06
5,CC(C)S(=O)(=O)C[C@H](O)[C@H](CC1CCCCC1)NC(=O)[C@H](Cc1c[nH]cn1)NC(=O)[C@@H](NC(=O)OC(C)(C)C)[C@@H](C)OCc1ccccc1,0.0055
6,O=C(NC(Cc1cnc[nH]1)C(=O)N[C@@H](CC1CCCCC1)[C@@H](O)CS(=O)(=O)C1CCCCC1)C(Cc1ccccc1)Cc1ccccc1 (stereo not given in full),0.04
7,CC(C)S(=O)(=O)C[C@H](O)[C@H](CC1CCCCC1)NC(=O)[C@H](Cc1c[nH]cn1)NC(=O)[C@H](Cc1ccccc1)NC(=O)OC(C)(C)C,0.002
8,CC(C)S(=O)(=O)C[C@H](O)[C@H](CC1CCCCC1)NC(=O)[C@H](CCO)NC(=O)[C@H](Cc1ccccc1)NC(=O)OC(C)(C)C,0.02
9,COc1ccc(C[C@H](NC(=O)OC(C)(C)C)C(=O)N[C@@H](Cc2c[nH]cn2)C(=O)N[C@@H](CC2CCCCC2)[C@@H](O)CS(=O)(=O)C(C)C)cc1,0.003

# Further lines, results first:
row,IC50 [µM],Compound
1,0.01,CC(C)C(=O)N[C@H](C(=O)N[C@@H](Cc1c[nH]cn1)C(=O)N[C@@H](CC1CCCCC1)[C@@H](O)CS(=O)(=O)C(C)C)[C@@H](C)OCc1ccccc1
2,0.03,CC(C)S(=O)(=O)C[C@H](O)[C@H](CC1CCCCC1)NC(=O)[C@H](Cc1ccccc1)NC(=O)[C@H](Cc1ccccc1)NC(=O)OC(C)(C)C
3,0.43,O=C(COc1ccccc1)NC(Cc1c[nH]cn1)C(=O)N[C@@H](CC1CCCCC1)[C@@H](O)CSC1CCCCC1 (stereo not given in full)
4,0.015,CC(C)(C)OC(=O)N[C@@H](Cc1ccccc1)C(=O)N[C@@H](Cc1c[nH]cn1)C(=O)N[C@@H](Cc1ccccc1)[C@@H](O)CSC1CCCCC1
5,0.1,CC(C)S(=O)(=O)C[C@H](O)[C@H](CC1CCCCC1)NC(=O)[C@H](CCCCNC(=O)OCc1ccccc1)NC(=O)[C@H](Cc1ccccc1)NC(=O)OC(C)(C)C
6,0.02,CCOC(=O)N[C@H](C(=O)N[C@@H](Cc1c[nH]cn1)C(=O)N[C@@H](CC1CCCCC1)[C@@H](O)CS(=O)(=O)C(C)C)[C@@H](C)OCc1ccccc1

# Target: Pepsin A (Sus scrofa) (UniProt P00791)
# Experiment: Evaluated for the percentage of inhibition of porcine pepsin at E-5M concentration
# Sequence of Pepsin A (Sus scrofa) (P00791 60-385 limits assumed): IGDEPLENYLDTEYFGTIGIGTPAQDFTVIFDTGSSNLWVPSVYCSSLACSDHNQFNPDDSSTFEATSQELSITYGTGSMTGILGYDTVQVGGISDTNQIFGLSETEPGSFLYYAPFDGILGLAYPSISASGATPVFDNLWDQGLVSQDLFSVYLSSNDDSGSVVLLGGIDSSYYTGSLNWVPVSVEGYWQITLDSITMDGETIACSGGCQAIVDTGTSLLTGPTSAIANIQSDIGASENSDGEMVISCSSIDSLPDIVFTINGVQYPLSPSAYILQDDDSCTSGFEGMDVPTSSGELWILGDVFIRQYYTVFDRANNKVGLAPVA
row,Compound,inhibition [%]
1,CC(C)S(=O)(=O)C[C@H](O)[C@H](CC1CCCCC1)NC(=O)[C@H](Cc1c[nH]cn1)NC(=O)[C@H](Cc1ccccc1)NC(=O)CC(C)(C)C,0
2,CC(C)S(=O)(=O)C[C@H](O)[C@H](CC1CCCCC1)NC(=O)[C@H](CO)NC(=O)[C@H](Cc1ccccc1)NC(=O)OC(C)(C)C,0
3,CC(C)S(=O)(=O)C[C@H](O)[C@H](CC1CCCCC1)NC(=O)[C@H](Cc1c[nH]cn1)NC(=O)[C@@H](NC(=O)OC(C)(C)C)[C@@H](C)OCc1ccccc1,0
4,CC(C)S(=O)(=O)C[C@H](O)[C@H](CC1CCCCC1)NC(=O)[C@H](Cc1c[nH]cn1)NC(=O)[C@H](Cc1ccccc1)NC(=O)OC(C)(C)C,0
5,COc1ccc(C[C@H](NC(=O)OC(C)(C)C)C(=O)N[C@@H](Cc2c[nH]cn2)C(=O)N[C@@H](CC2CCCCC2)[C@@H](O)CS(=O)(=O)C(C)C)cc1,0

# The next lines start with the values.
row,inhibition [%],Compound
1,0,O=C(NC(Cc1c[nH]cn1)C(=O)N[C@@H](CC1CCCCC1)[C@@H](O)CSC1CCCCC1)C(Cc1ccccc1)Cc1ccccc1 (stereo not given in full)
2,0,CC(C)S(=O)(=O)C[C@H](O)[C@H](CC1CCCCC1)NC(=O)C(Cc1c[nH]cn1)NC(=O)C(Cc1ccccc1)Cc1ccccc1 (stereo not given in full)
3,4,CC(C)S(=O)(=O)C[C@H](O)[C@H](CC1CCCCC1)NC(=O)[C@H](Cc1ccccc1)NC(=O)[C@H](Cc1ccccc1)NC(=O)OC(C)(C)C
4,4,CC(C)(C)OC(=O)N[C@@H](Cc1ccccc1)C(=O)N[C@@H](Cc1c[nH]cn1)C(=O)N[C@@H](Cc1ccccc1)[C@@H](O)CSC1CCCCC1

# Target: T2, Renin (Homo sapiens) (UniProt P00797)
# T2 sequence (whole entry): T1 sequence (P00797 whole entry)
# Experiment: Evaluated in vitro for inhibitory potency against renin at 10e-6 M
row,inhibition [%],Compound
1,43,CC(C)S(=O)(=O)C[C@H](O)[C@H](CC1CCCCC1)NC(=O)[C@H](CCCN)NC(=O)[C@H](Cc1ccccc1)NC(=O)OC(C)(C)C
2,34,CC(C)S(=O)(=O)C[C@H](O)[C@H](CC1CCCCC1)NC(=O)[C@H](CCCCN)NC(=O)[C@H](Cc1ccccc1)NC(=O)OC(C)(C)C

# Target: T3, Cathepsin D (Bos taurus) (UniProt P80209)
# T3 sequence (whole entry): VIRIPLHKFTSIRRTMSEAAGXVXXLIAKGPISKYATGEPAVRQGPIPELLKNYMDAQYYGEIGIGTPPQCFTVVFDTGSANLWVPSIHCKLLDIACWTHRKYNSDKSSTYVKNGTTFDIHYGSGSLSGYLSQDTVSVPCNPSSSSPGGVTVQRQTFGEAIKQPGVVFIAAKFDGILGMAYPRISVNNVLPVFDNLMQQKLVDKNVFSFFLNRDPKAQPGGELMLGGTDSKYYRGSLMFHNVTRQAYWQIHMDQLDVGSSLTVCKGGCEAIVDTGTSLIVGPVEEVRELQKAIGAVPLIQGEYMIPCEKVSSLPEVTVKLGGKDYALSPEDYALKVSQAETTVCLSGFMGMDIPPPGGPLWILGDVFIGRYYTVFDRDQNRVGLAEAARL
# Experiment: Evaluated for the percentage of inhibition of bovine cathepsin D at E-5M concentration
row,Compound,inhibition [%]
1,CC(C)S(=O)(=O)C[C@H](O)[C@H](CC1CCCCC1)NC(=O)[C@H](Cc1c[nH]cn1)NC(=O)[C@H](Cc1ccccc1)NC(=O)CC(C)(C)C,0
2,CC(C)S(=O)(=O)C[C@H](O)[C@H](CC1CCCCC1)NC(=O)[C@H](CO)NC(=O)[C@H](Cc1ccccc1)NC(=O)OC(C)(C)C,47
3,CC(C)S(=O)(=O)C[C@H](O)[C@H](CC1CCCCC1)NC(=O)[C@H](Cc1c[nH]cn1)NC(=O)[C@@H](NC(=O)OC(C)(C)C)[C@@H](C)OCc1ccccc1,0
4,CC(C)S(=O)(=O)C[C@H](O)[C@H](CC1CCCCC1)NC(=O)[C@H](Cc1c[nH]cn1)NC(=O)[C@H](Cc1ccccc1)NC(=O)OC(C)(C)C,0
5,COc1ccc(C[C@H](NC(=O)OC(C)(C)C)C(=O)N[C@@H](Cc2c[nH]cn2)C(=O)N[C@@H](CC2CCCCC2)[C@@H](O)CS(=O)(=O)C(C)C)cc1,0

# Results, then the molecule that gave them:
row,inhibition [%],Compound
1,0,O=C(NC(Cc1c[nH]cn1)C(=O)N[C@@H](CC1CCCCC1)[C@@H](O)CSC1CCCCC1)C(Cc1ccccc1)Cc1ccccc1 (stereo not given in full)
2,0,CC(C)S(=O)(=O)C[C@H](O)[C@H](CC1CCCCC1)NC(=O)C(Cc1c[nH]cn1)NC(=O)C(Cc1ccccc1)Cc1ccccc1 (stereo not given in full)
3,0,CC(C)S(=O)(=O)C[C@H](O)[C@H](CC1CCCCC1)NC(=O)[C@H](Cc1ccccc1)NC(=O)[C@H](Cc1ccccc1)NC(=O)OC(C)(C)C
4,0,CC(C)(C)OC(=O)N[C@@H](Cc1ccccc1)C(=O)N[C@@H](Cc1c[nH]cn1)C(=O)N[C@@H](Cc1ccccc1)[C@@H](O)CSC1CCCCC1
